The record followed here is patent US7960378B2, “Therapeutic compounds” (Allergan, Inc., priority 2008, dated 2011).

Format in all cases: in vivo
One test has as its system normotensive dogs. Put plainly: IOP in normotensive dogs. The conditions noted are these: versus baseline.
In test [1] the test system is laser-induced hypertensive monkeys. Put plainly: IOP in laser-induced hypertensive monkeys. The conditions noted are these: versus baseline.
For test [2], the system named is lashes and adjacent hairs of the eyelids. Put plainly: Lash and adjacent hair changes in glaucoma patients treated in one eye. To be noted: glaucoma patient treated in only one eye. The source says: In the course of treating patients having glaucoma, treatment may only be appropriate in one eye. […] The lash appearance on the lids of the treated eyes would have appeared quite attractive if it represented a bilateral phenomenon. As a result of its asymmetric nature, the long lashes on one side could be construed as disturbing from a cosmetic standpoint. A systemic examination was preformed as a result of the asymmetric phenomenon. It soon became apparent that this altered appearance was not an isolated finding. […] Definite differences could be identified to varying degrees in the lashes and adjacent hairs of all patients who were taking the drug on a unilateral basis for longer than 6 months.
The changes in the lashes were apparent on gross inspection in several patients once attention was focused on the issue. In those with light colored hair and lashes, the differences were only seen easily with the aid of the high magnification and lighting capabilities of the slit lamp biomicroscope. In the course of glaucoma follow-up examination, attention is generally immediately focused on the eye itself. As a result of the high power magnification needed only one eye is seen at a time and the eye is seen at a high enough power that the lashes are not in focus. […]

Turning to `N#C[C@@H]1C[C@@H](O)[C@H](/C=C/CC(O)C2(c3cccs3)CCC2)[C@H]1C/C=C\CCCC(=O)OCCN1CCOCC1` (stereo partly drawn) [Compound X], in the test with normotensive dogs, the “intraocular pressure (IOP)” value is “decreases from baseline”. In test [1], the IOP result is on record as “decreases from baseline”.
For the molecule `CCC1(C(O)CCC[C@@H]2[C@@H](CCCc3ccc(C(=O)OCCO)s3)[C@H](C#N)C[C@H]2O)CCC1` (stereo partly drawn) [Compound VI], the “intraocular pressure (IOP)” value in the test on normotensive dogs is on record as “decreases from baseline”. The IOP result in test [1] is recorded as “decreases from baseline”.
Take `N#C[C@@H]1C[C@@H](O)[C@H](CCCC(O)C2(c3cccs3)CCC2)[C@H]1CCCCCCC(=O)OCCO` (stereo partly drawn) [Compound VIII]: in the test on normotensive dogs, the “intraocular pressure (IOP)” value is on record as “decreases from baseline”. Besides, the IOP entry in test [1] is “decreases from baseline”.
For `CCC1(C(O)CCC[C@@H]2[C@@H](CCCCCCC(=O)OCCO)[C@H](C#N)C[C@H]2O)CCC1` (stereo partly drawn) [Compound III], the “intraocular pressure (IOP)” value with normotensive dogs is given as “decreases from baseline”. For the same molecule, the IOP entry in test [1] is on record as “decreases from baseline”.
Regarding `N#C[C@@H]1C[C@@H](O)[C@H](CCCC(O)C2(c3cccs3)CCC2)[C@H]1CCCCCCC(=O)OCCN1CCOCC1` (stereo partly drawn) [Compound XV], the “intraocular pressure (IOP)” value in the test with normotensive dogs is on record as “decreases from baseline”. Moreover, in test [1], the IOP result is recorded as “decreases from baseline”.
For `N#C[C@@H]1C[C@@H](O)[C@H](/C=C/CC(O)C2(Cc3ccc(Cl)s3)CCC2)[C@H]1C/C=C\CCCC(=O)OCCN1CCOCC1` (stereo partly drawn) [Compound XIII], in the test with normotensive dogs, the “intraocular pressure (IOP)” value is reported as “decreases from baseline”. Besides, the IOP result in test [1] is on record as “decreases from baseline”.
As for `CCC1(C(O)C/C=C/[C@@H]2[C@@H](C/C=C\CCCC(=O)OCCN3CCOCC3)[C@H](C#N)C[C@H]2O)CCC1` (stereo partly drawn) [Compound IX], the “intraocular pressure (IOP)” value in the test on normotensive dogs is reported as “decreases from baseline”. In addition, the IOP entry in test [1] is “decreases from baseline”.
Regarding `CCC1(C(O)CCC[C@@H]2[C@@H](CCCCCCC(=O)OCCN3CCOCC3)[C@H](C#N)C[C@H]2O)CCC1` (stereo partly drawn) [Compound XI], the “intraocular pressure (IOP)” value with normotensive dogs is given as “decreases from baseline”. Further, the IOP result in test [1] was “decreases from baseline”.
`CCC1(C(O)CCC[C@@H]2[C@@H](CCCc3ccc(C(=O)OCCN4CCOCC4)s3)[C@H](C#N)C[C@H]2O)CCC1` (stereo partly drawn) [Compound XIV]: in the test with normotensive dogs, the “intraocular pressure (IOP)” value was “decreases from baseline”. Besides, the IOP entry in test [1] is listed as “decreases from baseline”.
On to `CCC1(C(O)C/C=C/[C@@H]2[C@@H](CCCc3ccc(C(=O)OCCN4CCOCC4)s3)[C@H](C#N)C[C@H]2O)CCC1` (stereo partly drawn) [Compound XVI], for which the “intraocular pressure (IOP)” value in the test with normotensive dogs was “decreases from baseline”. The IOP entry in test [1] is “decreases from baseline”.
For the molecule `CCC1(C(O)C/C=C/[C@@H]2[C@@H](CCCc3ccc(C(=O)OCCO)s3)[C@H](C#N)C[C@H]2O)CCC1` (stereo partly drawn) [Compound VII], in the test on normotensive dogs, the “intraocular pressure (IOP)” value is “decreases from baseline”. For the same molecule, in test [1], the IOP result is reported as “decreases from baseline”.
For the molecule `N#C[C@@H]1C[C@@H](O)[C@H](/C=C/CC(O)C2(c3cccs3)CCC2)[C@H]1CCCCCCC(=O)OCCO` (stereo partly drawn) [Compound IV], the “intraocular pressure (IOP)” value in the test with normotensive dogs is listed as “decreases from baseline”. Further, the IOP entry in test [1] was “decreases from baseline”.
In the case of `CCNC(=O)CCC/C=C\C[C@@H]1[C@@H](/C=C/[C@@H](O)CCc2ccccc2)[C@H](O)C[C@@H]1O` [bimatoprost], the “lash appearance, treated eye versus non-treated eye” value in test [2] is “longer, thicker, and fuller in the treated eye than in the non-treated eye”.
`CCC1(C(O)C/C=C/[C@@H]2[C@@H](C/C=C\CCCC(=O)OCCO)[C@H](C#N)C[C@H]2O)CCC1` (stereo partly drawn) [Compound I]: the “intraocular pressure (IOP)” value in the test on normotensive dogs is recorded as “decreases from baseline”. Besides, the IOP entry in test [1] is listed as “decreases from baseline”.
`N#C[C@@H]1C[C@@H](O)[C@H](/C=C/CC(O)C2(c3cccs3)CCC2)[C@H]1C/C=C\CCCC(=O)OCCO` (stereo partly drawn) [Compound II]: the “intraocular pressure (IOP)” value in the test with normotensive dogs is “decreases from baseline”. The IOP result in test [1] was “decreases from baseline”.
For the molecule `N#C[C@@H]1C[C@@H](O)[C@H](/C=C/CC(O)C2(c3cccs3)CCC2)[C@H]1CCCCCCC(=O)OCCN1CCOCC1` (stereo partly drawn) [Compound XII], the “intraocular pressure (IOP)” value with normotensive dogs is listed as “decreases from baseline”. The IOP result in test [1] is reported as “decreases from baseline”.
Turning to `N#C[C@@H]1C[C@@H](O)[C@H](/C=C/CC(O)C2(Cc3ccc(Cl)s3)CCC2)[C@H]1C/C=C\CCCC(=O)OCCO` (stereo partly drawn) [Compound V], the “intraocular pressure (IOP)” value in the test with normotensive dogs is “decreases from baseline”. Further, the IOP result in test [1] is “decreases from baseline”.
